Assay results from US8017611B2, “Pyridine and pyrazine derivatives -083” (AstraZeneca AB, priority 2007, dated 2011).
Like-named read-outs stand apart in the source and are kept apart here.

Biological target: T1, cMet expressed on MKN45 cells (Homo sapiens, UniProt P08581)
T1 construct: endogenous in cells; host or cells: MKN45
Assay: Cellular c-Met inhibition assay, Test (d)
Assay type: cell-based
Description: These and other assays can be used to indicate the ability of a test compound to inhibit c-Met mediated cellular signalling in mammalian cell lines, for example the human tumour cell line MKN45. This is achieved by measuring the amount of phosphorylated c-Met within a cell following compound treatment.
MKN45 cells were routinely passaged in DMEM (Gibco BRL, product number 41966-029) plus 10% foetal calf serum (FCS), 1% L-glutamine (Gibco BRL, product number 25030024), to a confluence not greater than 85%. To undertake the assay, MKN45 cells were seeded at 2×10^4 cells/well in DMEM plus 0.5% foetal calf serum, 1% L-glutamine in 96 well plates (Costar, product number 3904) and incubated at 37° C. (+5% CO2) in a humidified incubator. Once the cells had fully adhered (typically following overnight incubation) plates were dosed with 25 μl compound (diluted from 10 mM stock in DMSO using serum free DMEM) and the plates were returned to a humidified 37° C. (+5% CO2) incubator for one hour. Following incubation the cells were fixed by adding formaldehyde (4% final concentration) and incubating at room temperature for 20 minutes. […] The plates were read using an Arrayscan II (Cellomics). […]

T1 sequence (P08581 25-1390): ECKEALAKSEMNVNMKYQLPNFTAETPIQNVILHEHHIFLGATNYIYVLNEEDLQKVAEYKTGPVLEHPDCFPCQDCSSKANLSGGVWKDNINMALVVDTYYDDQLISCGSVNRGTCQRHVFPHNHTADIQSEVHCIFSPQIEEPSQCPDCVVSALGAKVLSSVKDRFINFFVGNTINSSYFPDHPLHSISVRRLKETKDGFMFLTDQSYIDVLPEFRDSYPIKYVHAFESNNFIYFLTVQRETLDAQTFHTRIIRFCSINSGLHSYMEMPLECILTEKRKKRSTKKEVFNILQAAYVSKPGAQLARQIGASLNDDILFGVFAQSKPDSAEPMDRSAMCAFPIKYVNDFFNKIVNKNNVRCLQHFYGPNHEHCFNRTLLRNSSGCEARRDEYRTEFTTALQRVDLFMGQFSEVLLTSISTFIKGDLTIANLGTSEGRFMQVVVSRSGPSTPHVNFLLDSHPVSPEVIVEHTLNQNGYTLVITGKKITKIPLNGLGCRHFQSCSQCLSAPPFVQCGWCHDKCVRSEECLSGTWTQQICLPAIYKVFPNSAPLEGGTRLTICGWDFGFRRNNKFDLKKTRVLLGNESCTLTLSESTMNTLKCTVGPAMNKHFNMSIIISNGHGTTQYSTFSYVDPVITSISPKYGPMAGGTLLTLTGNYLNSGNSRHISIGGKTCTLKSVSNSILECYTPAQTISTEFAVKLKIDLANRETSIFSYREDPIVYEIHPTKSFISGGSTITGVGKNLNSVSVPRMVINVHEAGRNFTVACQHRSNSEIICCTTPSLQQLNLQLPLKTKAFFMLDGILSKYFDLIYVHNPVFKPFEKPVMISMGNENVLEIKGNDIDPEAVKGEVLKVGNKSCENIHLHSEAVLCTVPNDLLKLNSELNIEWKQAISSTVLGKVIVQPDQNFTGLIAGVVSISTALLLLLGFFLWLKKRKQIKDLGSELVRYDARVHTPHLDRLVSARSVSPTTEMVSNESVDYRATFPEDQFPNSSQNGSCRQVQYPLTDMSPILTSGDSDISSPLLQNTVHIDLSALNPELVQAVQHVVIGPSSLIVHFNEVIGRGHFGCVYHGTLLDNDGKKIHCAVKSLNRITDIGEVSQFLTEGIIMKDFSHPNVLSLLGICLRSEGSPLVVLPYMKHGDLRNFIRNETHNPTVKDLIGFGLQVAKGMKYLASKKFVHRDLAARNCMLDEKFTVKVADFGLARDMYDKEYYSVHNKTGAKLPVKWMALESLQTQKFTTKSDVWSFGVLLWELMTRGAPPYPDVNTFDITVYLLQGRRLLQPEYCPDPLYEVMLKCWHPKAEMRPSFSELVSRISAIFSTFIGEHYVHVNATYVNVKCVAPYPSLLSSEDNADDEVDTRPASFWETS

- IC50 (MKN45 cells, read-out: IC50 versus cellular phospho-c-Met (pYpYpY1230/4/5)): ~590 nM
- IC50 (later recalculated, read-out: IC50 versus cellular phospho-c-Met (pYpYpY1230/4/5), mean recalculated from a larger number of replicates): 950 nM
Compound: CN1CCC(n2cc(-c3cnc(N)c(-c4nc5ccc(F)cc5o4)c3)cn2)CC1 [Example 7.2]
